Source: patent US20250163072A1, “MACROCYCLIC COMPOUNDS FOR THE TREATMENT OF CANCER” (Hoffmann-La Roche Inc., priority 2021, published 2025)

How the values were obtained:
[1] = GSH reaction rates (inherent GSH reactivity); type: in vitro ADME; conditions: for T1/2(hour) in GSH: potassium phosphate buffer pH 7.4
Experimental: Therefore Strategy to minimize the GSH metabolism is very critical. Short T1/2 in inherent GSH reaction indicated high GSH reaction rate. Thus T1/2 in inherent GSH reaction assay was determined for the screening of candidates. Reference compounds and compounds of this invention potentially could form conjugation with GSH either through halogenated moieties substitution reaction or direct Michael addition reaction. This test was therefore performed to check GSH reactivity of listed compounds. For inherent GSH reactivity determination, compounds at 1 μM were incubated at 37° C. with and without 5 mM GSH for 0, 0.5, 1, 2, 4 and 6 h in 100 mM potassium phosphate buffer at pH 7.4. At the end of the designated time points, samples were quenched with acetonitrile containing 10 mM N-ethylmaleimide and an internal standard. Quenched samples were centrifuged, and supernatants were analyzed by LC-MS/MS for compound quantification.

[2] = target: T1, KRAS G12C-BRAF complex (Homo sapiens (Human), UniProt P01116+P62937, G12C); experiment: KRAS G12C-BRAF NanoBit assay; type: cell-based; conditions: HEK293 cells, SmBit-KRAS G12C and BRAF RBD-LgBit, 3 hours incubation
Experimental: This assay is to measure the ability of tested compounds in disruption of the KRAS G12C-BRAF complex at the cellular level, we established the NanoBit cellular assay in mammalian HEK293 (ATCC) cells. HEK293 cells were grown and maintained using DMEM medium (Thermo Fisher Scientific) with 10% fetal bovine serum and 1% penicillin/streptomycin. Both KRAS G12C and BRAF RBD were cloned into the NanoBit vectors ([…] vectors system, Promega) with the orientations SmBit-KRAS G12C and BRAF RBD-LgBit, respectively, and co-transfected into HEK293 cells. Cells were then selected with 100 μg/mL Hygromycin B (10687010, Thermo Fisher) and Blasticidin (5 μg/mL) for 4 weeks to get the stable cell pool. On the day of the assay, 75 nL of compound solution was presented in a 384-well assay plate as a 16-point 3-fold dilution starting from a final concentration of 30 μM in DMSO. Then cells were seeded at 10,000 cells/25 μL/well in a 384-well plate. After 3 hours of incubation, 6 μL of volume of Nano-Glo® Live Cell Substrate (Promega) was added into each well. Monitor luminescence using ultra384 model in Envision at 20 minutes. Compounds that facilitate disruption of the KRAS G12C-BRAF RBD complex were identified as those eliciting a decrease of luminescence relative to DMSO control wells.

[3] = system: KRAS G12C in NCI-H358 cells; experiment: pERK inhibition assay, NCI-H358; type: cell-based, human; conditions: Homo sapiens, 4 hours incubation
How it was run: (§1)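 NCI-H358, AGS and SW620 cells in RPMI-1640/10% FBS were plated overnight, then exposed to compound (0.5% DMSO final) for 4 h. After fixation and permeabilization, phospho-ERK was quantified by in-cell ELISA (HRP secondary, TMB, OD450); IC50 from a 4-parameter sigmoidal fit.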

[4] = system: KRAS G12D in AGS cells; experiment: pERK inhibition assay, AGS; type: cell-based, human; conditions: Homo sapiens, 4 hours incubation
How it was run: as §1

[5] = system: KRAS G12V in SW620; experiment: pERK inhibition assay, SW620; type: cell-based, human; conditions: Homo sapiens, SW-620, SW620 cells, 4 hours incubation
How it was run: as §1

[6] = system: NCI-H358 cells; experiment: Cell viability assay, NCI-H358; type: cell-based, human; conditions: Homo sapiens, NCI-H358, 72 hours, Cell Counting Kit-8, read-out: G12C IC50
How it was run: (§2)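 Cells were plated at 5,000 (NCI-H358) or 2,000 (AGS, SW620) per well and incubated overnight. They were then treated with compound in 0.5% DMSO for 72 h. Viability was read with CCK-8 as OD450 minus OD650 after 2 h, and IC50 came from a 4-parameter sigmoidal fit.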

[7] = system: AGS cells; experiment: Cell viability assay, AGS; type: cell-based, human; conditions: Homo sapiens, 72 hours, Cell Counting Kit-8, read-out: G12D IC50
How it was run: as §2

[8] = system: SW620 cells; experiment: Cell viability assay, SW620; type: cell-based, human; conditions: Homo sapiens, SW-620, SW620, 72 hours, Cell Counting Kit-8, read-out: G12V IC50
How it was run: as §2

[9] = Human hepatocytes stability assay; type: in vitro ADME; conditions: for CL_hep (Human): 1 μM compound, human hepatocytes 1×10^6 cells/mL; for Clearance Category: human hepatocytes
Experimental: The hepatocyte stability assay measures the rate of disappearance of a compound from incubations with cryopreserved suspension hepatocytes from human. Positive controls, including Midazolam, Raloxifene and Dextromethorphan, are included in every experiment. Incubations consist of 1 μM tested compound and suspension of human hepatocytes (1×10^6 cells/mL) in supplemented Williams' E Medium with […] and 0.5% Penicillin-streptomycin. The hepatocyte suspension was incubated with intermittent shaking 900 rpm at 37° C., in a 5% CO2 incubator. The reaction was stopped by adding methanol containing internal standard (2 μM Tolbutamide) at 2, 10, 20, 40, 60 and 120 minutes after compound addition, depletion of the parent compound was monitored by LC-MS/MS analysis.

[10] = target: T1, KRAS G12C-BRAF complex; experiment: KRAS-BRAF with CYPA (50 nM) interaction assay (TR-FRET), G12C; type: binding; conditions: GMPPNP loaded 6His-KRAS, GST-BRAF RBD
Experimental: (§3) In this example, TR-FRET was also used to measure the compound or compound-CYPA dependent disruption of the KRAS G12C-BRAF complex. This protocol was also used to measure disruption of KRAS G12D or KRAS G12V binding to BRAF by a compound of the invention, respectively. In assay buffer containing 25 mM HEPES PH=7.4 (4-(2-hydroxyethyl)-1-piperazineethanesulfonic acid, Thermo, 15630080), 0.002% Tween20, 0.1% BSA, 100 mM NaCl, 5 mM MgCl2, 10 μM GMPPNP (Guanosine 5'-[β,γ-imido]triphosphate trisodium salt hydrate, Sigma, G0635), tagless CYPA, GMPPNP loaded 6His-KRAS proteins, and GST-BRAF^RBD were mixed in a well of a 384-well assay plate at final concentrations of 50 nM, 6.25 nM and 1 nM, respectively. Compound was present in plate wells as a 16-point 3-fold dilution series starting at a final concentration of 10 μM and incubated for 3 hours. A mixture of MAb Anti-6His-XL665 (Cisbio, 61HISXLB) and Mab anti-GST-TB cryptate (Cisbio, 61GSTTLB) was then added at a final concentration of 6.67 nM and 0.21 nM, respectively, and the plate was incubated for an additional 1.5 hours. TR-FRET signal was read on a […] microplate reader (Ex320 nm, Em 665/615 nm). Compounds that facilitate disruption of the KRAS-BRAF complex were identified as those eliciting a decrease in the TR-FRET ratio relative to DMSO control wells.

[11] = target: KRAS G12D binding to BRAF (Homo sapiens (Human), UniProt P01116+P62937, G12D); experiment: KRAS-BRAF with CYPA (50 nM) interaction assay (TR-FRET), G12D; conditions: GMPPNP loaded 6His-KRAS, GST-BRAF RBD
Experimental: as §3

[12] = target: KRAS G12V binding to BRAF (Homo sapiens (Human), UniProt P01116+P62937, G12V); experiment: KRAS-BRAF with CYPA (50 nM) interaction assay (TR-FRET), G12V; conditions: GMPPNP loaded 6His-KRAS, GST-BRAF RBD
Experimental: as §3

[13] = 1 μM compound, 5 mM GSH, 37° C., pH 7.4, 6 hr
[14] = 1 μM compound, 5 mM GSH, 37° C.

T1 sequence (P01116-2 other isoform, or with tags, fused parts or gaps G12C): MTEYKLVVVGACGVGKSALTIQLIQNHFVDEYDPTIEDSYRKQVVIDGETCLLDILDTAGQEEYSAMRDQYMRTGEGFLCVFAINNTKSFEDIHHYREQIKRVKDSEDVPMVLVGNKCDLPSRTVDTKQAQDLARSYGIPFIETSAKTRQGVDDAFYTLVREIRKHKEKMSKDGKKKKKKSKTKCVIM
T1 sequence (P62937 whole entry): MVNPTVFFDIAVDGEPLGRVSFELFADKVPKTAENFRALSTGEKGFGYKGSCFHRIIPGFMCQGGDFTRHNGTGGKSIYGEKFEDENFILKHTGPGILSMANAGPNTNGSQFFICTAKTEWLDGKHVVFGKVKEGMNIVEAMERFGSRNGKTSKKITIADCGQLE
Chain of KRAS G12D binding to BRAF (P01116-2 other isoform, or with tags, fused parts or gaps G12D): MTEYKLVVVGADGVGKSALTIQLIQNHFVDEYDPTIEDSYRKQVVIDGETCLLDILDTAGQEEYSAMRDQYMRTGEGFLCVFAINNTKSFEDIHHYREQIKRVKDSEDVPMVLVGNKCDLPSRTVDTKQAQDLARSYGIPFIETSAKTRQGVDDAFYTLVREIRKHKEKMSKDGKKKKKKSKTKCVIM
Chain of KRAS G12D binding to BRAF (P62937 whole entry): as the sequence (P62937 whole entry) above
Chain of KRAS G12V binding to BRAF (P01116-2 other isoform, or with tags, fused parts or gaps G12V): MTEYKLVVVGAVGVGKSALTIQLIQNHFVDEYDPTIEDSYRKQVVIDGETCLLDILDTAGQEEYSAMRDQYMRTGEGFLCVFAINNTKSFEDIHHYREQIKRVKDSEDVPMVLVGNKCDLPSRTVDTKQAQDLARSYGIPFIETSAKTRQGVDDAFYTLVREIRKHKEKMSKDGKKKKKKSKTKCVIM
Chain of KRAS G12V binding to BRAF (P62937 whole entry): as the sequence (P62937 whole entry) above

| SMILES | Remaining at 6 hr in GSH (%) ([1]; 6 h, 1 μM, pH 7.4) | IC50 [2] | IC50 [3] | IC50 [4] | IC50 [5] | IC50 [6] | IC50 [7] | IC50 [8] | CL_hep (Human) [9] | Clearance Category [9] | IC50 [10] | IC50 [11] | IC50 [12] | Remaining at 6 hr in GSH (%) [1, 13] | T1/2(hour) in GSH [1, 14] |
| --- | --- | --- | --- | --- | --- | --- | --- | --- | --- | --- | --- | --- | --- | --- | --- |
| CCn1c(-c2cc(N3CCN(C)CC3)cnc2[C@H](C)OC)c2c3cc(ccc31)-c1csc(n1)C[C@H](NC(=O)[C@H](C(C)C)N(C)C(=O)[C@H]1CCN(C(=O)[C@H](F)Cl)C1)C(=O)N1CCCC(N1)C(=O)OCC(C)(C)C2 (stereo partly drawn) [Example 10, (3S)-1-[(2R)-2-chloro-2-fluoro-acetyl]-N-[(1S)-1-[[(7S,13S)-21-ethyl-(20M)-20-[2-[(1S)-1-methoxyethyl]-5-(4-methylpiperazin-1-yl)-3-pyridyl]-17,17-dimethyl-8,14-dioxo-15-oxa-4-thia-9,21,27,28-tetrazapentacyclo[17.5.2.12,5.19,13.022,26]octacosa-1(25),2,5(28),19,22(26),23-hexaen-7-yl]carbamoyl]-2-methyl-propyl]-N-methyl-pyrrolidine-3-carboxamide] | 85% | 21 nM | 3 nM | 31 nM | 11 nM | 0.4 nM | 52 nM | 59 nM | <2.4 mL/min/kg | low (CL_hep (mL/min/kg)<6.96 is low clearance) |  |  |  |  |  |
| CCn1c(-c2cc(N3CCN(C)CC3)cnc2[C@H](C)OC)c2c3cc(ccc31)-c1cc(O)cc(c1)C[C@H](NC(=O)[C@H](C(C)C)N(C)C(=O)[C@H]1CCN(C(=O)[C@H](F)Cl)C1)C(=O)N1CCC[C@H](N1)C(=O)OCC(C)(C)C2 (atropisomer, axis not shown; (M)) [Example 12, (3S)-1-[(2R)-2-chloro-2-fluoro-acetyl]-N-[(1S)-1-[[(8S,14S)-22-ethyl-4-hydroxy-(21M)-21-[2-[(1S)-1-methoxyethyl]-5-(4-methylpiperazin-1-yl)-3-pyridyl]-18,18-dimethyl-9,15-dioxo-16-oxa-10,22,28-triazapentacyclo[18.5.2.12,6.110,14.023,27]nonacosa-1(26),2,4,6(29),20,23(27),24-heptaen-8-yl]carbamoyl]-2-methyl-propyl]-N-methyl-pyrrolidine-3-carboxamide] |  | 37 nM | 6 nM | 10 nM | 12 nM | 5 nM | 16 nM | 16 nM |  |  | 2 nM | 6 nM | 3 nM |  |  |
| CO[C@@H](C)c1ncc(N2CCN(C)CC2)cc1-c1c2c3cc(ccc3n1CC(F)(F)F)-c1csc(n1)C[C@H](NC(=O)[C@H](C(C)C)N(C)C(=O)[C@H]1CCN(C(=O)[C@H](F)Cl)C1)C(=O)N1CCC[C@H](N1)C(=O)OCC(C)(C)C2 (atropisomer, axis not shown; (M)) [Example 21, (3S)-1-[(2R)-2-chloro-2-fluoro-acetyl]-N-[(1S)-1-[[(7S,13S)-(20M)-20-[2-[(1S)-1-methoxyethyl]-5-(4-methylpiperazin-1-yl)-3-pyridyl]-17,17-dimethyl-8,14-dioxo-21-(2,2,2-trifluoroethyl)-15-oxa-4-thia-9,21,27,28-tetrazapentacyclo[17.5.2.12,5.19,13.022,26]octacosa-1(25),2,5(28),19,22(26),23-hexaen-7-yl]carbamoyl]-2-methyl-propyl]-N-methyl-pyrrolidine-3-carboxamide] |  |  | 1 nM | 14 nM | 5 nM | 0.3 nM | 44 nM | 8 nM | <2.4 mL/min/kg | low (CL_hep (mL/min/kg)<6.96 is low clearance) | 21 nM | > 10000 nM | > 10000 nM | 88% | stable (If % depletion after 6 hour incubation is less than 20%, compounds were reported as stable) |
| CO[C@@H](C)c1ncc(N2CCN(C)CC2)cc1-c1c2c3cc(ccc3n1CC(F)(F)F)-c1csc(n1)C[C@H](NC(=O)[C@H](C(C)C)N1CCCC3(CCN(C(=O)[C@H](F)Cl)C3)C1=O)C(=O)N1CCC[C@H](N1)C(=O)OCC(C)(C)C2 (stereo partly drawn) [Example 19, (2S)-2-[2-[(2R)-2-chloro-2-fluoro-acetyl]-6-oxo-2,7-diazaspiro[4.5]decan-7-yl]-N-[(7S,13S)-(20M)-20-[2-[(1S)-1-methoxyethyl]-5-(4-methylpiperazin-1-yl)-3-pyridyl]-17,17-dimethyl-8,14-dioxo-21-(2,2,2-trifluoroethyl)-15-oxa-4-thia-9,21,27,28-tetrazapentacyclo[17.5.2.12,5.19,13.022,26]octacosa-1(25),2,5(28),19,22(26),23-hexaen-7-yl]-3-methyl-butanamide] |  | 21 nM | 3 nM | 28 nM | 8 nM | 0.9 nM | 18 nM | 15 nM | 10.1 mL/min/kg | medium (16.24<CL_hep (mL/min/kg)>6.96 is medium clearance) |  |  |  | 85% | stable (If % depletion after 6 hour incubation is less than 20%, compounds were reported as stable) |
